Data taken from publication PMC4595834, “Comparison of carbon-sulfur and carbon-amine bond in therapeutic drug: 4β-S-aromatic heterocyclic podophyllum derivatives display antitumor activity” (Scientific Reports, 2015).
Like-named read-outs stand apart in the source and are kept apart here.

Tests used:
A549 cells = assay: MTT cytotoxicity assay, A549; type: cell-based, human; settings: MTT, drug exposure 48 h, mean ± SD (n = 3), read-out: Cytotoxic activity (IC50) A549
Method: (§1) Cytotoxicity of the podophyllum derivatives were determined by reading the absorbance at 492 nm on a multiplate reader (Thermo Fisher Scientific, Multiskan MK3). Cell cycle analysis and apoptosis analysis were analyzed by flow cytometry (Accuri C6, BD). Immunofluorescence images were recorded using laser scanning microscope (Perkin-Elmer & Olympus, UltraView VoX & Ix81). The gel for the decatenation of kDNA by Topoisomerase II study was photographed with UV illumination, Tanon 1600 (Tanon Science & Technology Co., Ltd., Shanghai). The nitrocellulose blotting membrane for western blot analysis was visualized using X-ray film processor and X-ray film, Fujifilm SUPER RX-N-C.
(§2) Cytotoxicity assay was performed on human lung adenocarcinoma epithelial cell line (A549), henrietta lacks strain of cancer cells (HeLa), human gastric carcinoma cell line (BGC 823), and normal human hepatocyte cell line (HL-7702). Cells (3500–13,000) in a 100 μL culture medium per well were seeded into 96-well microtest plates (Falcon, CA). A549 cell lines, HeLa cell lines and HL-7702 cell lines were cultured in DMEM supplemented with 10% CS, 100 mg/L penicillin G, 100 mg/L streptomycin. BGC 823 cell lines were cultured in RPMI medium 1640 supplemented with 10% CS, 100 mg/L penicillin G, and 100 mg/L streptomycin. The cells were incubated at 37 °C, in a humidified atmosphere with 5% CO2 for 48 h. For all cell lines, the microculture tetrazolium [3-(4, 5-dimethylthiazol-2-yl)-2, 5-diphenyltetrazolium bromide, MTT; Sigma, St. Louis, MO] assay was performed to measure the cytotoxic effects. Drug stock solutions (the each drug concentration was 0.5, 1, 10, 20, 50, 100, 200, and 500 μM, respectively) were prepared in DMSO and the final solvent concentration was ≤ 2% DMSO (v/v), a concentration without effect on cell replication. Initial seeding densities varied among the cell lines to ensure a final absorbance reading in control (untreated) cultures in the range 0.6–0.8 A492 units. Drug exposure was for 2 days, and the IC50 value, the drug concentration that reduced the absorbance by 50%, was interpolated from dose-response data. Each test was performed in triplicate, and absorbance readings varied no more than 5%. Data presented as means ± standard deviation (SD). Statistical analyses were performed by the analysis of variance (ANOVA). All statistical analyses were performed using Origin version 8.0 ([…], OriginLab Corp., Northampton, MA, USA). Sigmoidal dose responses and non-linear regression analyses were undertaken to identify half-maximal concentrations for each of the drugs. To evaluate differences in IC50 concentrations, analysis of variance combined with Tukey’s multiple range test was used.

BGC-823 cells = assay: MTT cytotoxicity assay, BGC-823; type: cell-based, human; settings: Homo sapiens, BGC-823; MTT, drug exposure 48 h, mean ± SD (n = 3); read-out: Cytotoxic activity (IC50) BGC-823
Method: as §1, §2

[1] = MTT cytotoxicity assay, normal hepatocyte HL-7702; type: cell-based; settings: HL-7702 cells (normal hepatocyte cell line), normal human hepatocyte cell line, drug exposure 48 h, mean ± SD (n = 3), read-out: Cytotoxic activity (IC50) HL-7702
Method: as §1, §2

HeLa cells = assay: MTT cytotoxicity assay, HeLa; type: cell-based, human; settings: Homo sapiens, HeLa; MTT, drug exposure 48 h, mean ± SD (n = 3); read-out: Cytotoxic activity (IC50) HeLa
Method: as §1, §2

Structure (SMILES)	IC50 (A549 cells; Homo sapiens, A549, 48 h)	IC50 (BGC-823 cells)	IC50 at 48 h [1]	IC50 (HeLa cells)	IC50 (A549 cells)
COc1cc([C@@H]2c3cc4c(cc3[C@@H](Sc3ncccn3)[C@H]3COC(=O)[C@H]23)OCO4)cc(OC)c1OC [Compound 4S, 4β-S-(pyrimidine-2)-4-deoxy-podophyllotoxin]	2.4 ± 0.76 µM	0.49 ± 0.01 µM	51.1 ± 3.17 µM	3.64 ± 0.46 µM	–
COc1cc([C@@H]2c3cc4c(cc3[C@@H](Nc3ncnc5nc[nH]c35)[C@H]3COC(=O)[C@H]23)OCO4)cc(OC)c1OC [Compound 6N]	3.72 ± 0.11 µM	12.5 ± 1.35 µM	13.6 ± 1.26 µM	5.85 ± 0.36 µM	–
COc1cc([C@@H]2c3cc4c(cc3[C@@H](Nc3ccccn3)[C@H]3COC(=O)[C@H]23)OCO4)cc(OC)c1OC [Compound 3N, 4β-NH-(pyridine-2)-4-deoxy-podophyllotoxin]	28.2 ± 2.58 µM	14.3 ± 3.22 µM	28.2 ± 2.58 µM	13.7 ± 2.13 µM	–
COc1cc([C@@H]2c3cc4c(cc3[C@@H](Sc3ncccn3)[C@H]3COC(=O)[C@H]23)OCO4)cc(OC)c1O [4′S, 4β-S-(pyrimidine-2)-4-deoxy-4′-demethyl-podophyllotoxin]	14 ± 1.66 µM	11.2 ± 0.35 µM	140 ± 3.82 µM	12.92 ± 0.08 µM	–
COc1cc([C@@H]2c3cc4c(cc3[C@@H](Nc3nncs3)[C@H]3COC(=O)[C@H]23)OCO4)cc(OC)c1OC [Compound 2N, 4β-NH-(1,3,4-thiodiazole-2)-4-deoxy-podophyllotoxin]	12.5 ± 0.55 µM	2.33 ± 0.24 µM	18.7 ± 3.19 µM	6.33 ± 0.36 µM	–
COc1cc([C@@H]2c3cc4c(cc3[C@@H](Sc3nc5ccccc5s3)[C@H]3COC(=O)[C@H]23)OCO4)cc(OC)c1OC [Compound 5S, 4β-S-(benzothiazole-2)-4-deoxy-podophyllotoxin]	11.1 ± 1.71 µM	1.04 ± 0.13 µM	31.8 ± 1.62 µM	0.97 ± 0.12 µM	–
COc1cc([C@@H]2c3cc4c(cc3[C@@H](Nc3ncccn3)[C@H]3COC(=O)[C@H]23)OCO4)cc(OC)c1OC [Compound 4N, 4β-NH-(pyrimidine-2)-4-deoxy-podophyllotoxin]	59.6 ± 3.48 µM	63.6 ± 3.77 µM	47.3 ± 2.71 µM	26.4 ± 1.52 µM	–
COc1cc([C@@H]2c3cc4c(cc3[C@@H](Sc3nc5ccccc5s3)[C@H]3COC(=O)[C@H]23)OCO4)cc(OC)c1O [5′S, 4β-S-(benzothiazole-2)-4-deoxy-4′-demethyl-podophyllotoxin]	8.25 ± 0.83 µM	1.87 ± 0.36 µM	98.5 ± 3.51 µM	1.71 ± 0.07 µM	–
COc1cc([C@@H]2c3cc4c(cc3[C@@H](Nc3ncccn3)[C@H]3COC(=O)[C@H]23)OCO4)cc(OC)c1O [4′N, 4β-NH-(pyrimidine-2)-4-deoxy-4′-demethyl-podophyllotoxin]	70.4 ± 3.92 µM	64.2 ± 4.43 µM	41.8 ± 1.75 µM	44.4 ± 2.37 µM	–
COc1cc([C@@H]2c3cc4c(cc3[C@@H](Nc3nc5ccccc5s3)[C@H]3COC(=O)[C@H]23)OCO4)cc(OC)c1O [5′N, 4β-NH-(benzothiazole-2)-4-deoxy-4′-demethyl-podophyllotoxin]	14.2 ± 0.43 µM	10.5 ± 0.45 µM	18.6 ± 1.48 µM	5.65 ± 0.11 µM	–
COc1cc([C@@H]2c3cc4c(cc3[C@@H](Sc3ncnc5nc[nH]c35)[C@H]3COC(=O)[C@H]23)OCO4)cc(OC)c1O [6′S, 4β-S-(purine-6)-4-deoxy-4′-demethyl-podophyllotoxin]	7.45 ± 0.18 µM	45 ± 3.68 µM	27.5 ± 2.35 µM	10.3 ± 0.41 µM	–
COc1cc([C@@H]2c3cc4c(cc3[C@@H](Nc3nncs3)[C@H]3COC(=O)[C@H]23)OCO4)cc(OC)c1O [2′N, 4β-NH-(1,3,4-thiodizole-2)-4-deoxy-4′-demethyl-podophyllotoxin]	2.22 ± 0.31 µM	15.4 ± 0.63 µM	28.7 ± 1.31 µM	10.3 ± 0.41 µM	–
COc1cc([C@@H]2c3cc4c(cc3[C@@H](O[C@@H]3O[C@@H]5CO[C@@H](C)O[C@H]5[C@H](O)[C@H]3O)[C@H]3COC(=O)[C@H]23)OCO4)cc(OC)c1O [etoposide, reference compound]	–	20.5 ± 2.55 µM	24.6 ± 3.82 µM	59.4 ± 2.45 µM	20.1 ± 1.95 µM
COc1cc([C@@H]2c3cc4c(cc3[C@@H](Sc3ncnc5nc[nH]c35)[C@H]3COC(=O)[C@H]23)OCO4)cc(OC)c1OC [Compound 6S, 4β-S-(purine-6)-4-deoxy-podophyllotoxin]	0.57 ± 0.22 µM	11.3 ± 1.71 µM	20.6 ± 1.38 µM	1.21 ± 0.13 µM	–
COc1cc([C@@H]2c3cc4c(cc3[C@@H](Sc3nncs3)[C@H]3COC(=O)[C@H]23)OCO4)cc(OC)c1OC [Compound 2S]	1.26 ± 0.1 µM	0.31 ± 0.02 µM	36.2 ± 3.81 µM	1.25 ± 0.36 µM	–
COc1cc([C@@H]2c3cc4c(cc3[C@@H](Sc3ccccn3)[C@H]3COC(=O)[C@H]23)OCO4)cc(OC)c1OC [Compound 3S, 4β-S-(pyridine-2)-4-deoxy-podophyllotoxin]	19.1 ± 1.52 µM	1.09 ± 0.06 µM	89.7 ± 2.45 µM	0.9 ± 0.03 µM	–
COc1cc([C@@H]2c3cc4c(cc3[C@@H](Nc3ccccn3)[C@H]3COC(=O)[C@H]23)OCO4)cc(OC)c1O [3′N, 4β-NH-(pyridine-2)-4-deoxy-4′-demethyl-podophyllotoxin]	122 ± 4.6 µM	111 ± 3.55 µM	122 ± 5.88 µM	96.5 ± 7.64 µM	–
COc1cc([C@@H]2c3cc4c(cc3[C@@H](Nc3nc5ccccc5s3)[C@H]3COC(=O)[C@H]23)OCO4)cc(OC)c1OC [Compound 5N]	15.2 ± 0.43 µM	13.2 ± 0.86 µM	5.33 ± 0.14 µM	2.32 ± 0.28 µM	–
COc1cc([C@@H]2c3cc4c(cc3[C@@H](Nc3ncnc5nc[nH]c35)[C@H]3COC(=O)[C@H]23)OCO4)cc(OC)c1O [6′N, 4β-NH-(purine-6)-4-deoxy-4′-demethylepipodophyllotoxin]	15.7 ± 1.61 µM	43.2 ± 1.36 µM	19.2 ± 1.31 µM	20.5 ± 0.38 µM	–
